Assay results published in PubChem BioAssay AID1000 (SRMLSC, 2008).
Calls of active or inactive are those of the source.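 How the source made its calls: active means over 20% inhibition at the single screening dose, then confirmed by dose response with half-maximal potency of 40 µM or better; inactive means the rest.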

Molecular target: mevalonate kinase (Streptococcus pneumoniae D39)
Assay: S. pneumoniae MK inhibition retest, confirmation, biochemical, cuvette format, NADH absorbance 340 nm (AID 1000)
Conditions: recombinant MK, PK/LDH coupled NADH absorbance 340 nm; for inhibition: at 100 µM, active compounds read high

inhibition	IC50 [nM]	Structure (SMILES)
inactive	–	O=c1c2ccccc2nc2n1CCC2NC1CC1 (configuration not stated)
inactive	–	Cc1ccc2nc3n(c(=O)c2c1)CCC3
inactive	–	O=c1c2c(Cl)cccc2nc2n1CCC2
–	277	CCCNC(=O)c1cccc(-n2sc3ccccc3c2=O)c1
inactive	–	O=c1c2c(F)cccc2nc2n1CCC2
–	157	O=C(NCc1ccco1)c1ccc(-n2sc3ccccc3c2=O)cc1
inactive	–	O=c1c2ccccc2nc2n1CCC2SCCc1ccccc1 (configuration not stated)
–	68	O=C(NCc1ccccc1)c1cccc(-n2sc3ccccc3c2=O)c1
–	514	O=C(c1ccccc1-n1sc2ccccc2c1=O)N1CCCC1
–	432	O=C(c1cccc(-n2sc3ccccc3c2=O)c1)N1CCOCC1
inactive	–	O=c1c2cc(Cl)ccc2nc2n1CCC2
–	579	O=C(NCc1ccco1)c1ccccc1-n1sc2ccccc2c1=O
inactive	–	O=c1c2ccc(F)cc2nc2n1CCC2
–	137	O=C(NCc1ccco1)c1cccc(-n2sc3ccccc3c2=O)c1
inactive	–	O=c1c2cccc(Cl)c2nc2n1CCC2
inactive	–	O=c1c2ccc(Cl)cc2nc2n1CCC2
–	306	Cc1ccc(-n2sc3ccccc3c2=O)cc1C(=O)N1CCCCC1
–	244	O=C(c1cccc(-n2sc3ccccc3c2=O)c1)N1CCCCC1
–	176	O=C(NCC1CC1)c1ccc(-n2sc3ccccc3c2=O)cc1

inhibition	IC50 [nM]	Structure (SMILES)
–	168	CCCN(CCC)C(=O)c1ccc(-n2sc3ccccc3c2=O)cc1
–	381	CCCNC(=O)c1ccccc1-n1sc2ccccc2c1=O
–	214	CCN(CC)C(=O)c1cccc(-n2sc3ccccc3c2=O)c1
–	1630	O=C(c1ccccc1-n1sc2ccccc2c1=O)N1CCOCC1
inactive	–	COc1cc2nc3n(c(=O)c2cc1OC)CCC3
–	304	O=C(NCCN1CCCC1)c1ccc(-n2sc3ccccc3c2=O)cc1
inactive	–	O=c1c2ccccc2nc2n1CCC2(Br)Br
–	246	O=C(c1ccc(-n2sc3ccccc3c2=O)cc1)N1CCCCC1
–	230	CCN(CC)C(=O)c1ccc(-n2sc3ccccc3c2=O)cc1
–	795	CCCN(CCC)C(=O)c1ccccc1-n1sc2ccccc2c1=O
–	198	O=C(c1ccc(-n2sc3ccccc3c2=O)cc1)N1CCCC1
inactive	–	COc1cccc2c(=O)n3c(nc12)CCC3
–	958	O=C(NC1CC1)c1ccccc1-n1sc2ccccc2c1=O
–	94	O=C(NCc1ccccc1)c1ccc(-n2sc3ccccc3c2=O)cc1
inactive	–	COc1cccc2c(=O)n3c(nc12)/C(=C/c1ccc2c(c1)OCO2)CC3
–	83	Cc1ccc(-n2sc3ccccc3c2=O)cc1S(=O)(=O)N1CCCC1
inactive	–	COc1cccc(CCNC2CCn3c2nc2ccccc2c3=O)c1 (configuration not stated)
–	531	O=C(c1ccccc1-n1sc2ccccc2c1=O)N1CCCCC1
inactive	–	O=c1c2ccccc2nc2n1CCC2N1CCC(Cc2ccccc2)CC1 (configuration not stated)

inhibition	IC50 [nM]	Structure (SMILES)
–	171	O=C(NC1CC1)c1ccc(-n2sc3ccccc3c2=O)cc1
–	1010	CCN(CC)C(=O)c1ccccc1-n1sc2ccccc2c1=O
inactive	–	O=c1c2ccccc2nc2n1CCC2SCc1ccccc1 (configuration not stated)
inactive	–	COc1ccc(CSC2CCn3c2nc2ccccc2c3=O)cc1 (configuration not stated)
–	754	CN(C)C(=O)c1ccccc1-n1sc2ccccc2c1=O
–	304	CCCN(CCC)C(=O)c1cccc(-n2sc3ccccc3c2=O)c1
–	369	CN(C)C(=O)c1cccc(-n2sc3ccccc3c2=O)c1
–	389	CN(C)C(=O)c1ccc(-n2sc3ccccc3c2=O)cc1
inactive	–	O=c1c2ccccc2nc2n1CCC2N1CCOCC1 (configuration not stated)
–	197	O=C(NC1CC1)c1cccc(-n2sc3ccccc3c2=O)c1
inactive	–	O=c1c2cc(Br)ccc2nc2n1CCC2
inactive	–	O=c1c2cc(F)ccc2nc2n1CCC2
inactive	–	Cc1cccc2c(=O)n3c(nc12)CCC3
–	383	O=C(c1ccc(-n2sc3ccccc3c2=O)cc1)N1CCOCC1
–	230	O=C(c1cccc(-n2sc3ccccc3c2=O)c1)N1CCCC1
–	134	CCCNC(=O)c1ccc(-n2sc3ccccc3c2=O)cc1
–	242	O=C(NCc1ccccc1)c1ccccc1-n1sc2ccccc2c1=O
–	17300	O=c1c2ccccc2nc2n1CCC2NC(c1ccccc1)c1ccccc1 (configuration not stated)
–	459	CN1CCN(C(=O)c2ccc(-n3sc4ccccc4c3=O)cc2)CC1
